Measurements from US12534465B2, “5H-pyrrolo[3,2-d]pyrimidine-2,4-diamino compounds and antibody conjugates thereof” (SUTRO BIOPHARMA, INC., priority 2019, dated 2026).

Key:
Format in all cases: cell-based
human TLR8 = biological target: T1, human TLR8 (Homo sapiens, UniProt Q9NR97); assay: HEK293-humanTLR8 SEAP reporter assay (Example 8); details: HEK293-hTLR8 SEAP reporter cells, 24 hrs
T1 construct: host or cells: HEK293
T1 sequence (Q9NR97 27-1041): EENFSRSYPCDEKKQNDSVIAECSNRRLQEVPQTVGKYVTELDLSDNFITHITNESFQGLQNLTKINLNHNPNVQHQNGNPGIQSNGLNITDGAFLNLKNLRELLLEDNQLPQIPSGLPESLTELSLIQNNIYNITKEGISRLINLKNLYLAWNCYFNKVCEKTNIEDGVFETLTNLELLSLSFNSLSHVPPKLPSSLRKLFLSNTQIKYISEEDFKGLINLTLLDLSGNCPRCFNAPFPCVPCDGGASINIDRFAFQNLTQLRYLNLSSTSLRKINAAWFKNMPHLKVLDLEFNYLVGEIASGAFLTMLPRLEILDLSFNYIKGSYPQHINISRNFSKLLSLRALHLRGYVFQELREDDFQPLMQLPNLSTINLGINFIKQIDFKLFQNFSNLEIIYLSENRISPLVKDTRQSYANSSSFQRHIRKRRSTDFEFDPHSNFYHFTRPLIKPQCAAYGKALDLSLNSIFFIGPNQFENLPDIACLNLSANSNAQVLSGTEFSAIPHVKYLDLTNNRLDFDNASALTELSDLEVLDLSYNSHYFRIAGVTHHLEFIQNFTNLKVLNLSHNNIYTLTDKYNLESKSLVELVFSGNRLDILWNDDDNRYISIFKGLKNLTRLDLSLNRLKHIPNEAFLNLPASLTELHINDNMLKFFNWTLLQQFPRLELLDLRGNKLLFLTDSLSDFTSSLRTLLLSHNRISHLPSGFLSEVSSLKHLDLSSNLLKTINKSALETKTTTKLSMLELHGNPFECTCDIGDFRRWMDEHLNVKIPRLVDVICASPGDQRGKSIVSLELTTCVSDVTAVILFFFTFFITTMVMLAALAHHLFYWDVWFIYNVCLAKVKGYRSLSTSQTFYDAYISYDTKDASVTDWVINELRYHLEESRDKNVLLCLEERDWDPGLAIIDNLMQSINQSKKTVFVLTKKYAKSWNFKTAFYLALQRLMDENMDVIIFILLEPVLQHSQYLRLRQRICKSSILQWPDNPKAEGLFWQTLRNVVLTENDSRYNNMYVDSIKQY
Description: (§1) In this example, the in vitro activity of compounds to activate human TLR7 (or human TLR8 or mouse TLR7) pathway was evaluated on HEK293 reporter cells transfected with human TLR7 (or human TLR8 or mouse TLR7) and an inducible SEAP (secreted embryonic alkaline phosphatase) reporter gene. The SEAP reporter gene is placed under the control of the IFN-β minimal promoter fused to five NF-κB and AP-1-binding sites. Stimulation with a TLR7 agonist activates NF-κB and AP-1 which induces the production of SEAP. Levels of SEAP were determined by HEK-Blue Detection medium.
(§2) The in vitro activity of compounds on TLR7 (human and mouse) and TLR8 (human only) reporter cell lines was assessed as follows. 5-(2-methoxy-4-(piperazin-1-ylmethyl)benzyl)-N4-pentyl-5H-pyrrolo[3,2-d]pyrimidine-2,4-diamine (Compound 1) is a compound used for comparison and has the structure shown below:
(§3) HEK293-humanTLR7 (hTLR7), HEK293-mouseTLR7 (mTLR7) and HEK293-humanTLR8 (hTLR8) reporter cell lines were purchased from Invivogen and cell lines were maintained in the manufacturer's recommended culture medium with required supplemental antibiotics. On the day of assay, the cells were harvested with Accutase and counted by the Vi-CELL Cell Viability Analyzers. Cells were resuspended in HEK blue detection medium and a total of 10,000 cells were seeded in each well of a 384-well flat bottom plate. Serial dilutions of test compounds (1:4 serial dilution starting from 5 μM) were added into treatment wells and assay plates were cultured at 37° C. in a CO2 incubator for 24 hrs. The plates were then read by spectrophotometry at 640 nm. Data was fitted with non-linear regression analysis, using a log(inhibitor) vs. response-variable slope, 3-parameter fit with GraphPad Prism. There result was reported in Table 1 as EC50 (the midpoint of the curve, or concentration at which 50% of the maximum effect was observed).

mouse TLR7 = biological target: T2, mouse TLR7 (Mus musculus, UniProt P58681); assay: HEK293-mouseTLR7 SEAP reporter assay (Example 8); details: HEK293-mTLR7 SEAP reporter cells, 24 hrs
T2 construct: host or cells: HEK293
T2 sequence (P58681 27-1050): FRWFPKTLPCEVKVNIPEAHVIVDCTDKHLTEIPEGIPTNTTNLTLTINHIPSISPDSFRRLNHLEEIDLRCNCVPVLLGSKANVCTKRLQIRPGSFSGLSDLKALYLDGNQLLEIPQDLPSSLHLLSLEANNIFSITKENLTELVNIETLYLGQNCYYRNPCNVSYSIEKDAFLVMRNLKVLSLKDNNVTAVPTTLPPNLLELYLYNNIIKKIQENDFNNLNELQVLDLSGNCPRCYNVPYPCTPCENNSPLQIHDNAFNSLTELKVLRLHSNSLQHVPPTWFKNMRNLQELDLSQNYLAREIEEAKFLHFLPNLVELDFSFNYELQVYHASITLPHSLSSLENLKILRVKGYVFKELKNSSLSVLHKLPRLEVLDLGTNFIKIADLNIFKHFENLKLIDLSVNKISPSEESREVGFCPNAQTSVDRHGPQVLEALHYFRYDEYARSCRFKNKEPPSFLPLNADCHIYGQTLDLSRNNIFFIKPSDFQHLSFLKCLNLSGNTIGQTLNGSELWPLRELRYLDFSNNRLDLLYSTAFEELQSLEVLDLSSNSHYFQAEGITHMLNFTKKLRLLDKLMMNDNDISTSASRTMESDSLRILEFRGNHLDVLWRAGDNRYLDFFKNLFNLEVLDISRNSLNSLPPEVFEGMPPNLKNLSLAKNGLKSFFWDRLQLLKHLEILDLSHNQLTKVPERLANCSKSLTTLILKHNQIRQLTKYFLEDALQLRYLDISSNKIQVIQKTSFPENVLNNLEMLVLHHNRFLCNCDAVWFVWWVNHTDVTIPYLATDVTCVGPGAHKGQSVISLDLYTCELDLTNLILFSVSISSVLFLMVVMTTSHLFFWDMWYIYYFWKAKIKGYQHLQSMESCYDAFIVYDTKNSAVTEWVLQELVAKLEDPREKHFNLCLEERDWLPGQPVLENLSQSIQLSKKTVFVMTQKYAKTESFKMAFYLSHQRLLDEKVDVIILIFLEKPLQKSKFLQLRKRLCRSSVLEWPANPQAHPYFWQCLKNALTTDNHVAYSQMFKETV
Description: as §1, §2, §3

human TLR7 = biological target: T3, human TLR7 (Homo sapiens, UniProt Q9NYK1); assay: HEK293-humanTLR7 SEAP reporter assay (Example 8); details: HEK293-hTLR7 SEAP reporter cells, 24 hrs
T3 construct: host or cells: HEK293
T3 sequence (Q9NYK1 27-1049): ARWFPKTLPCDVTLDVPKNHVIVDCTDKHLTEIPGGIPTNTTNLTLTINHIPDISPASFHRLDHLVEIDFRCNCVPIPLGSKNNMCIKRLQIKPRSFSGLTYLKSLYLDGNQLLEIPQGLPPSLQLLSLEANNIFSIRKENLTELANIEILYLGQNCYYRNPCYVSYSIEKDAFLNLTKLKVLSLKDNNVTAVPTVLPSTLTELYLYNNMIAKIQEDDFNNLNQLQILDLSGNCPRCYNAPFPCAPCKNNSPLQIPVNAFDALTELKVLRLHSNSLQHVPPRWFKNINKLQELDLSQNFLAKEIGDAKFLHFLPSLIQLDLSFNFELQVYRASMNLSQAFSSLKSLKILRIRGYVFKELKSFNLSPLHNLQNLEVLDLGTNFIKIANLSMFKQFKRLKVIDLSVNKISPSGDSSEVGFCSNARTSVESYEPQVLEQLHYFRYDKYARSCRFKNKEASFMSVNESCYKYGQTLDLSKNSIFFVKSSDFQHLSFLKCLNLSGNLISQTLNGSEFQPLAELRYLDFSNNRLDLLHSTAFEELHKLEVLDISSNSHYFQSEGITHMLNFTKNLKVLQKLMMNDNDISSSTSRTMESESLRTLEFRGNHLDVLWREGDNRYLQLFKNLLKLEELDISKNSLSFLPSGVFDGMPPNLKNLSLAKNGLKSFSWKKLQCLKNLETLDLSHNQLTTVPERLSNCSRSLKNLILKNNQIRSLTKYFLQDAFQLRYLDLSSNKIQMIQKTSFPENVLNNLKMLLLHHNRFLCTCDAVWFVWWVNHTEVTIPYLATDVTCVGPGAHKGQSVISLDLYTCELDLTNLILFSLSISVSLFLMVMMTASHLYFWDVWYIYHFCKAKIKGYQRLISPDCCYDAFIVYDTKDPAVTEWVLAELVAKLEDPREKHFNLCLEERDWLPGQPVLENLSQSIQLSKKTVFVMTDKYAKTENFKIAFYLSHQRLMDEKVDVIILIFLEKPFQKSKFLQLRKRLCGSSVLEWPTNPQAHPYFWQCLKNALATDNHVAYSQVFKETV
Description: as §1, §2, §3

Compound	EC50 (human TLR8) [nM]	EC50 (mouse TLR7) [nM]	EC50 (human TLR7) [nM]
CCCCCNc1nc(N)nc2ccn(Cc3ccc(CN4CC(N)C4)cc3OC)c12 [Compound 13, 5-(4-((3-aminoazetidin-1-yl)methyl)-2-methoxybenzyl)-N4-pentyl-5H-pyrrolo[3,2-d]pyrimidine-2,4-diamine]	374	2.7	0.5
CNC1CN(Cc2ccc(Cn3ccc4nc(N)nc(NCc5nocc5C)c43)c(OC)c2)C1 [Compound 5]	> 5000	–	1010
CNC1CN(Cc2ccc(Cn3ccc4nc(N)nc(NCc5cc(C)on5)c43)c(OC)c2)C1 [Compound 6, 5-(2-methoxy-4-((3-(methylamino)azetidin-1-yl)methyl)benzyl)-N4-((5-methylisoxazol-3-yl)methyl)-5H-pyrrolo[3,2-d]pyrimidine-2,4-diamine]	> 5000	> 5000	> 5000
CCCCCNc1nc(N)nc2ccn(Cc3ccc(CN4CC5(CNC5)C4)cc3OC)c12 [compound 9]	1140	16.2	13.4
CCCCCNc1nc(N)nc2ccn(Cc3ccc(CN4CC(C5CCNCC5)C4)cc3OC)c12 [compound 11]	> 5000	222	92.3
CCCCCNc1nc(N)nc2ccn(Cc3ccc(CN4CC5CCC4CN5)cc3OC)c12 (stereo not shown) [compound 15]	> 5000	24.6	4.8
CCCCCNc1nc(N)nc2ccn(Cc3ccc(CN4CCC5(CCNCC5)CC4)cc3OC)c12 [compound 7]	> 5000	112	48.8
CCCCCNc1nc(N)nc2ccn(Cc3ccc(CN4CCC(c5nnc6n5CCNC6)CC4)cc3OC)c12 [compound 12]	> 5000	–	370
CCCCCNc1nc(N)nc2ccn(Cc3ccc(CN4CC5(C4)CN(C(=O)OC(C)(C)C)CCO5)cc3OC)c12 [Compound 1.7, tert-butyl 2-[[4-[[2-amino-4-(pentylamino)pyrrolo[3,2-d]pyrimidin-5-yl]methyl]-3-methoxy-phenyl]methyl]-5-oxa-2,8-diazaspiro[3.5]nonane-8-carboxylate]	> 5000	6.7	0.1
CCCCCNc1nc(N)nc2ccn(Cc3ccc(CN4CC5CCCC(C4)NC5)cc3OC)c12 (stereo not shown) [compound 14]	> 5000	322	108
CCCCCNc1nc(N)nc2ccn(Cc3ccc(CN4CC5(CCNCC5)C4)cc3OC)c12 [compound 8]	> 5000	17.6	16.5
